Data taken from patent US20260021122A1, “CANNABINOIDS AND USES THEREOF IN TREATMENT OF A DISEASE” (TECHNION RESEARCH & DEVELOPMENT FOUNDATION LIMITED, priority 2022, published 2026).

What was measured:
B16F10 tumors [1] = assay: Mouse tumor model: B16F10 cells transplanted subcutaneously, tumor volume and weight; format: in vivo, mice; settings: CBG 2.5 mg/kg or 3704 3.75 mg/kg intraperitoneally
Procedure: (§1) All procedures involving animals were conducted in accordance with the standards approved by the Technion Animal Care and Use Ethics Committee and the studies adhered to the Technion Code for Experimentation on Animals. To induce tumors, B16F10 cells grown to a confluency of ˜75% were resuspended to a concentration of 1×10^6 cells in 200 ul sterile PBS and transplanted subcutaneously into the right flank of 8-10-week-old female WT C57B6/L mice (Envigo, 16.8±0.78 g). After either 24 hours or 3 days, mice were randomly divided into groups and treated as indicated with either a vehicle of Cannabis extract solvent (18:1:1 ratio of DDW+0.9% NaCl, Sigma, Cat #S7653; Cremophor® EL, Cat #238470; Ethanol, Sigma, #Cat 111727), CAN (100 mg/kg), synthetic CBG (2.5 mg/kg) or 3704 (3.75 mg/kg) for 5 days, then 2 days off and again for 4 days. Tumor volume was measured from day 10 to 14 (endpoint) using a vernier caliper and calculated according to the formula […] and all tumors were weighed at the endpoint of the experiments with an analytical scale.

CSF-1 = assay: ELISA of secreted CSF-1 in media of B16F10 cells; format: cell-based, murine; settings: summary statement of the discussion
Procedure: The media from B16F10 and A375 cell lines, or homogenates from B16F10 tumors, that were treated as indicated for 24 hours, were collected and the protein concentration of MCP-1, MIP-2, C-C Motif Chemokine Ligand 5 (CCL5), and CSF-1 were measured by Quantikine Mouse M-CSF Immunoassay solid-phase ELISA kit (R&D systems, Cat #MMC00) as described in the manufacture's protocol.

B16F10 tumors [2] = assay: Myeloid cell and CD3+ T-cell frequencies in excised B16F10 tumors (spectral flow cytometry); format: in vivo, mice; settings: CBG 2.5 mg/kg or 3704 3.75 mg/kg i.p., tumors day 14
Procedure: as §1
To prepare single-cell suspensions from the tumors, on day 14 the tumors were excised from the mice and placed in Hanks' Balanced Salt solution (HBSS, Sigma; Cat #H6648) containing 20 mg/ml DNase I (Sigma, Cat #D5025), 1 mg/ml collagenase D from Clostridium histolyticum (Sigma-Aldrich, Cat #C5138) and 0.1 mg/ml hyaluronidase (Sigma-Aldrich, Cat #6254). Tumors were mechanically digested using a scalpel and the gentleMACS™M Dissociator (Miltenyi Biotec). The resulting solution was filtered through a 100 μm filter (Alex Red Ltd. Cat #SO SCS1002) and centrifuged for 10 minutes at 400×g. The supernatant was further used for cytokine and chemokine concentration measurements. For the characterization of myeloid cell frequencies in tumors, the cell pellet was further processed as follows: red blood cells were lysed using the red blood lysis buffer (Biological industries, Cat #01-888-1B), which was neutralized by washing with PBS+2% FBS and centrifuging 10 minutes at 400×g. After centrifugation, cells were resuspended in 40% percoll gradient solution (prepared from 100% percoll, Cytiva, #17089101) and then 80% percoll was added on top of the 40% solution without mixing. The cell suspension was centrifuged at room temperature for 30 minutes without acceleration and break at 500×g. Cells were isolated from the interphase between the 40% and 80% percoll solutions and washed with PBS +2% FBS. Finally, cells were stained with extracellular markers for CD3+ T-cells and myeloid cells, and subpopulation frequency was measured by spectral flow cytometry using Cytek® Aurora (Cytek Biosciences). […]

Compound: CCCCCc1cc(O)c(C/C=C(\C)CCC=C(C)C)c(O)c1 [CBG, cannabigerol]
- Tumor weight on day 14 compared to vehicle (B16F10 tumors [1]; nine injections): weighed significantly less
- Tumor volume compared to the vehicle-treated group (B16F10 tumors [1]; nine injections from day 3, measured daily day 10 to 14): significantly lower in the CBG-treated group already at day 12
- efficiency of CSF-1 secretion reduction, comparison between treatments (discussion) (CSF-1): reduce CSF-1 secretion more efficiently than the psychoactive THC
- CD3 T-cells frequencies in tumors relative to vehicle control (B16F10 tumors [2]): trend of increase in T-cells frequencies
- frequencies of MO-MDSC and PMN-MDSC subpopulations in tumors (B16F10 tumors [2]): did not affect
- frequency of M2 macrophages in tumors relative to vehicle control (B16F10 tumors [2]): trend of a decreased frequency in M2 macrophages
- ratio between M1 and M2 macrophages (M2/M1) relative to vehicle control (B16F10 tumors [2]; calculated for each mouse): trend of decreased ratio
